This test concerns the target recombinant human SGK-1 enzyme (Homo sapiens, UniProt O00141). In words: Enzymatic activity assay: SGK-1 substrate peptide phosphorylation (Caliper lab-chip mobility shift). Type of test: biochemical. Here is the method:
In one of the cellular assays, the SGK-1 dependent phosphorylation of glycogen synthase kinase 3beta (GSK3beta) in U2OS cells was measured, in another one, a functional electrophysiological assay, the SGK-1 dependent activation of epithelial Na^+ channel (ENaC) currents in A6 cell monolayers, and in another one chondrocyte hypertrophic differentiation in mouse chondrogenic ATDC5 cells.
A) Enzymatic Activity Assay
For the determination of the compound dose response, a 10 mM DMSO stock solution was diluted and tested in a ten-point, three-fold dilution series run in duplicate beginning at 30 μM final concentration. Data were analyzed using a four-parameter curve fit with a fixed minimum and maximum experimentally defined as the average positive and negative controls on each plate.

[1] abbreviates: peptide substrate 1 μM, ATP 10 μM, 60 min at 37° C., read-out: IC50 values for inhibition of SGK-1 enzymatic activity.

Where two headings read alike, the source gives them in different places.

Chain of recombinant human SGK-1 enzyme (O00141 whole entry, looked up): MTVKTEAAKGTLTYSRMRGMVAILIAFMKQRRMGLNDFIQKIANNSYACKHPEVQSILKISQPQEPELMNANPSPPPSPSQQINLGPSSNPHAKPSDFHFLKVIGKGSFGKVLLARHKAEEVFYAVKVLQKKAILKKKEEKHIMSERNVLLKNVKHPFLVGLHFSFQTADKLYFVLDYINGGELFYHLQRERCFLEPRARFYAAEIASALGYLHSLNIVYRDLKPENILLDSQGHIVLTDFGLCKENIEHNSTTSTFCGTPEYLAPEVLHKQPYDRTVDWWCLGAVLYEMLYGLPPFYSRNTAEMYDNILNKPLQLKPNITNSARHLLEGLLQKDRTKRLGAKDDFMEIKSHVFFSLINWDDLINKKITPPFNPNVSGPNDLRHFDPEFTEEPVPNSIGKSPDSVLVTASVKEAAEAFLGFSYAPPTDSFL

What is called IC50 is the midpoint of a concentration-inhibition curve. For the molecule `Cc1nc(-c2ccc(NS(=O)(=O)c3cccc(C#N)c3)cc2)nc2[nH]nc(N)c12` [Example 471], under setting [1], the IC50 stood at 97 nM.

On to `COc1ccc(F)c(S(=O)(=O)Nc2ccc(-c3cc4[nH]nc(C)c4c(OCCC(=O)N(C)C)n3)cc2)c1` [Example 692], for which the IC50 under setting [1] was 6.5 nM.

For `CCOc1nc(-c2ccc(NS(=O)(=O)c3cc(F)c(F)cc3Cl)cc2)cc2[nH]nc(N)c12` [Example 614], the IC50 under setting [1] was 97 nM.

Take `CCOc1nc(-c2ccc(NS(=O)(=O)c3cc(OC)ccc3Cl)cc2)cc2[nH]nc(C)c12` [Example 675]: the 50% inhibitory concentration (IC50) under setting [1] was 15 nM.

Turning to `O=S(=O)(Nc1ccc(-c2nc(C3CC3)c3cn[nH]c3n2)cc1)c1ccccc1F` [Example 206], the IC50 under setting [1] was 1100 nM.

For the molecule `Cc1n[nH]c2nc(-c3ccc(NS(=O)(=O)c4ccccc4F)cc3)nc(OC3CCN(C(C)C)CC3)c12` [Example 352], the half-inhibitory concentration (IC50) under setting [1] was 11 nM.

As for `COCCc1nc(-c2ccc(NS(=O)(=O)c3ccc(F)cc3Cl)cc2)nc2[nH]nc(N)c12` [Example 507], the 50% inhibitory concentration (IC50) under setting [1] is 1500 nM.

Regarding `O=S(=O)(Nc1ccc(-c2nc(-c3cccnc3)c3cn[nH]c3n2)cc1)c1cc(Cl)ccc1Cl` [Example 5, 2,5-Dichloro-N-[4-(4-pyridin-3-yl-1H-pyrazolo[3,4-d]pyrimidin-6-yl)-phenyl]-benzenesulfonamide], the IC50 (read-out: IC50 values for inhibition of SGK-1 enzymatic activity, peptide substrate 1 μM, ATP 10 μM, 60 min at 37° C.) was under 1.2 nM.

With `Cc1ccc(F)c(S(=O)(=O)Nc2ccc(-c3nc(O)c4cn[nH]c4n3)cc2)c1` [Example 108], the IC50 under setting [1] came to 25 nM.

As to `COCCc1nc(-c2ccc(NS(=O)(=O)c3cc(F)c(F)cc3Cl)cc2)nc2[nH]nc(N)c12` [Example 510], the IC50 under setting [1] was 1500 nM.

Turning to `Nc1n[nH]c2cc(-c3ccc(NS(=O)(=O)c4cccc(Cl)c4F)cc3)nc(C(F)(F)F)c12` [Example 578], under setting [1], the IC50 is 430 nM.

Consider `Cc1ccc(F)c(S(=O)(=O)Nc2ccc(-c3cc4[nH]nc(C)c4c(OCCC(=O)N(C)C)n3)cc2)c1` [Example 686], for which, under setting [1], the half-inhibitory concentration (IC50) is 11 nM.

Consider `Cc1ccc(Cl)c(S(=O)(=O)Nc2ccc(-c3cc4[nH]nc(C)c4c(OC4CC(C)(C)NC(C)(C)C4)n3)cc2)c1` [Example 648], for which the 50% inhibitory concentration (IC50) under setting [1] was found to be 3.9 nM.

On to `COc1ccc(Oc2nc(-c3ccc(NS(=O)(=O)c4cc(Cl)ccc4F)cc3)cc3[nH]nc(C)c23)cn1` [Example 634], for which the IC50 under setting [1] stood at 23 nM.

On to `Cc1n[nH]c2nc(-c3ccc(NS(=O)(=O)c4ccccc4F)cc3)nc(OCC(CO)CO)c12` [Example 360], for which the IC50 under setting [1] stood at 110 nM.

In the case of `CCOc1nc(-c2ccc(NS(=O)(=O)c3cc(Cl)ccc3F)cc2)cc2[nH]nc(C)c12` [Example 676], the IC50 under setting [1] came out at 23 nM.

On to `COCCc1nc(-c2ccc(NS(=O)(=O)c3ccccc3F)cc2)nc2[nH]nc(N)c12` [Example 512], for which the concentration for half-maximal inhibition (IC50) under setting [1] was found to be 1500 nM.

As for `Cc1ccc(C#N)c(S(=O)(=O)Nc2ccc(-c3nc(OCC(CO)CO)c4c(C)n[nH]c4n3)cc2)c1` [Example 371], the IC50 under setting [1] came out at 3.9 nM.

For `COc1ccc(Oc2nc(-c3ccc(NS(=O)(=O)c4ccccc4F)cc3)cc3[nH]nc(C)c23)cn1` [Example 624], the IC50 under setting [1] stood at 37 nM.

For the molecule `COCCc1nc(-c2ccc(NS(=O)(=O)c3cc(Cl)ccc3F)cc2)nc2[nH]nc(N)c12` [Example 525], the IC50 under setting [1] is 25 nM.

With `Cc1n[nH]c2cc(-c3ccc(NS(=O)(=O)c4cc(F)cc(F)c4Cl)cc3)nc(OC3CCN(C4CCC4)CC3)c12` [Example 638], the IC50 under setting [1] is 11 nM.

Take `Nc1n[nH]c2cc(-c3ccc(NS(=O)(=O)c4cc(F)cc(F)c4Cl)cc3)ncc12` [Example 557]: under setting [1], the IC50 was 96 nM.

On to `Nc1n[nH]c2nc(-c3ccc(NS(=O)(=O)c4cc(Cl)ccc4Cl)cc3)nc(OCC3CC3)c12` [Example 355], for which the IC50 under setting [1] was 13 nM.

For the molecule `COc1cc(Oc2nc(-c3ccc(NS(=O)(=O)c4cc(C)ccc4C#N)cc3)cc3[nH]nc(C)c23)ccn1` [Example 667], the IC50 under setting [1] came out at 11 nM.

In the case of `O=S(=O)(Nc1ccc(-c2nc(OC3CCNCC3(F)F)c3cn[nH]c3n2)cc1)c1cc(Cl)ccc1Cl` (stereo not shown) [Example 247], the IC50 under setting [1] is 6.5 nM.

(Values after patent US9718825B2, “N-(4-(azaindazol-6-yl)-phenyl)-sulfonamides and their use as pharmaceuticals” (priority 2013, dated 2017).)
